Patent US12059000B1, “Use of erythritol compositions as mammal-safe insecticides” (Drexel University, priority 2020, dated 2024)
Entries after “also recorded” stand apart in the source; their conditions may differ.

Legend:
fruit flies [1] = experiment: Comparison of erythritol with other sweet alcohols, fly longevity; assay type: in vivo, Drosophila melanogaster; settings: 1 M in standard fly food, 17 days
Experimental: An experiment was conducted to compare the effectiveness of erythritol with other human-safe sweet alcohols: D-mannitol, maltitol, sucrose, and xylitol. The concentration of all sweet alcohols were 1M.
Flies were raised for 17 days on standard fly food that contained 1 M concentrations of each sweetener treatment. Death of flies was recorded daily as before; each treatment was replicated on three vials of 10 flies each for 30 subjects/treatment. Differences in longevity were analyzed using the Kaplan-Meier survival analysis log rank test, making all pairwise comparisons among treatments.

Drosophila melanogaster [2] = experiment: Two-way choice experiments, fly longevity; assay type: in vivo
Experimental: Foods containing 2 M erythritol, 1M erythritol and 1M sucrose were prepared for paired presentations in open choice tests. In each treatment one food type contained 0.05% brilliant blue FCF (Fisher 50-727-25). The blue dye allowed visual confirmation of feeding on the dyed food in the pair. The flies were presented with access to two food choices by using a modified cotton stopper with approximately a 1.5 cm diameter hole to connect each pair of food tubes.
The final choice treatment was between blue 2M erythritol food and non-blue 1M sucrose food (this treatment provides a comparison with the 1M erythritol/1M erythritol treatment as a test of dilution of toxicity by alternative food sources; blue guts would confirm erythritol was being consumed in the presence of sucrose). The number of flies with visible blue gut contents and mortality daily were recorded for 30 days.
(§1) Analyses were conducted with SPSS software v. 20 (IBM corporation 2011). Fly longevity data were analyzed using survival analysis with right-hand censoring of subjects that lived to the end of the study or were lost for reasons other than death. Test were run for differences in survival distributions [Pr(flies alive) versus insect age] using the log-rank (Mantel-Cox) test to make all pairwise comparisons among treatments within each experiment.

[3] = humans, even in high concentrations; cited from earlier work
Drosophila melanogaster [4] = experiment: Drosophila longevity assay on food containing sweeteners; assay type: in vivo; settings: repeat with blue food, 0.0238 g/ml
Experimental: All animals were cultured at 25° C., kept at 50-60% humidity, and were raised under a standard 12:12 light dark cycle. For each experimental treatment, n=30 flies were tested in groups of 10 per tube, and three tubes per treatment. Tubes were kept on their side to minimize subject becoming mired in the food. Foods were replaced twice a week. The total number of fruit flies used for these experiments was 780, with 300 used for two initial trials testing mortality among store-brand sweeteners, 210 used for repeating this with blue dye and pure erythritol, 120 for choice trials and 150 for concentration trials.
Standard Drosophila food for larval culturing consisted of water, cornmeal, yeast, molasses, and agar, as previously described (Chakraborty, et al., 2011, PLoS ONE 6: e20799). […] The addition of cornmeal and yeast assured the flies still received sufficient carbohydrates and protein in addition to any effects of the treatment additives.
Drosophila food was combined with an equal weight/volume (0.0238 g/ml) of one non-nutritive sweetener (TRUVIA, EQUAL, SPLENDA, SWEET'NLOW, or PUREVIA) or a control nutritive sweetener (controls: sucrose or corn syrup). Wild type (Canton S) larvae were initially raised on the standard food, and 0-12 hour old adult flies were transferred to foods containing one non-nutritive sweetener or a control treatment. […] The number of dead flies were scored daily.

Drosophila melanogaster [5] = experiment: Erythritol concentration trials on fly longevity; assay type: in vivo
Experimental: as §1, with “Standard fly foods were prepared as previously described, and then were treated with 2M, 1M, 0.5M and 0.1M concentrations of erythritol, using 0.5M sucrose as control. 0 to 24 hour-old Drosophila were placed on these foods and mortality was recorded daily for 35 days as above. Analyses” for “Analyses”

R. flavipes workers = experiment: Termite survival experiment on erythritol-treated paper; assay type: in vivo, Reticulitermes flavipes
Experimental: Termites used in the survival and choice experiments were collected from three field colonies in Scotland Run Park (39.66° N, 75.05° W) in Clayton, NJ between April and May 2019. After collection, colonies were maintained in plastic containers with soil and wood from the collection site as a substrate in laboratory conditions (20.8±0.9° C., 49±7% RH). Termites used in the consumption experiment were collected from a single field colony at Cobb's Creek Park (39.94° N, 75.24° W) in Philadelphia, PA during September of 2018. Workers were removed from the log and housed within 24 h of collection in 9 cm diameter petri dishes containing damp paper towel as a food source. Dishes were placed in an incubator at 26° C. (relative humidity varied between 40 and 60% across trials, but was consistent among all treatments within each trial). Each petri dish contained 10 workers. Termites used in all experiments measured 3-4 mm in length.
For the survival experiment, unbleached, brown paper towels (12 cmx 24 cm, cat no. 01801, Kimberly-Clark Corporation, Neenah, WI), were completely submerged for 15 s in solution of distilled water, erythritol (100% purity, NOW foods, Bloomingdale, IL) of the below-specified concentrations, and 0.05% Brilliant Blue R-250 dye (cat. no 27816, Sigma-Aldrich, St. Louis, MO). The erythritol concentrations used were: 0 M (control), 0.25 M, 0.5 M, 0.75 M, 1.0 M, and 1.25 M. The treated paper towels were removed from solution and allowed to dry horizontally on racks before being cut into squares with an area of 144 cm^2. […]
Following the pretrial period, the experiment was set up: pretrial paper towels were removed and replaced with treated paper towels of the correct erythritol treatment concentration; these were rehydrated with 750 μL of distilled water. […] Termite mortality was recorded every 24 h for 8 d.
Analyses were performed using SPSS v. […] Mean percent mortality was calculated for each concentration across colonies at 72 and 96 h and a three parameter, best-fit sigmoid curve was fitted to the data in Sigmaplot to assess LC at these time points.

fruit flies [6] = settings: 0.5 M erythritol food, previous work; cited from earlier work

OC[C@@H](O)[C@@H](O)[C@H](O)[C@H](O)CO [D-mannitol]
fly longevity / insecticidal effect compared to sucrose control (fruit flies [1]): did not differ from sugar control; also recorded: slightly but significantly reduced longevity; also recorded: almost insignificant insecticidal effect

OC[C@@H](O)[C@@H](O)CO [erythritol, (2R,3S)-butane-1,2,3,4-tetraol]
longevity relative to sucrose:sucrose choice (FIG. 5) (Drosophila melanogaster [2]; choice between 1M sucrose and 1M erythritol): significant decrease in longevity; also recorded: significantly decreased longevity
longevity relative to sucrose:sucrose choice (FIG. 5) (Drosophila melanogaster [2]; choice between 1M sucrose and 2M erythritol): significant decrease in longevity; also recorded: significantly reduced
safety of consumption [3]: safe to humans
fly longevity / insecticidal effect compared to sucrose control (fruit flies [1]): toxic to fruit flies upon ingestion
mean fly longevity (fruit flies [1]): 4.7 ± 0.15 days
longevity compared to PUREVIA, EQUAL, sucrose and corn syrup (FIG. 3) (Drosophila melanogaster [4]): significant decrease in longevity
longevity compared to control food containing 0.5M sucrose (Drosophila melanogaster [5]; 0.1M in food, 35 days): no significant difference in longevity
dose response of fly longevity (FIG. 4) (Drosophila melanogaster [5]; 0.1M, 0.5M, 1.0M and 2.0M in food): significant decrease in longevity of adult flies as concentration of erythritol was increased; also recorded: dose-dependent reduction in longevity
longevity compared to control food containing 0.5M sucrose (Drosophila melanogaster [5]; 0.5M in food, 35 days): significant reductions in longevity
longevity compared to control food containing 0.5M sucrose (Drosophila melanogaster [5]; 1M in food, 35 days): significant reductions in longevity
longevity compared to all other treatments (Drosophila melanogaster [5]; 2M in food, 35 days): significant and severe effect on longevity
longevity of workers to 8 d, erythritol treatments versus 0M control (FIG. 9) (R. flavipes workers; 0.25-1.25 M treated paper, 8 d): All treatments are significantly different from 0 M; also recorded: differed significantly
lowest concentration with significant effects on longevity (R. flavipes workers; R. flavipes workers, 8 d): 0.25 M
time to 50% mortality (R. flavipes workers; termites, 0.5 M erythritol filter papers): ≤ 2 days
time to 50% mortality (fruit flies [6]): 20 days

OC[C@@H](O)[C@@H](O[C@H]1O[C@H](CO)[C@@H](O)[C@H](O)[C@H]1O)[C@H](O)[C@@H](O)CO [maltitol]
fly longevity / insecticidal effect compared to sucrose control (fruit flies [1]): did not differ from sugar control; also recorded: did not differ from the control; also recorded: not effective at reducing fly longevity

OC[C@@H](O)[C@H](O)[C@@H](O)CO [xylitol]
fly longevity / insecticidal effect compared to sucrose control (fruit flies [1]): did not differ from sugar control; also recorded: did not differ from the control; also recorded: not effective at reducing fly longevity
